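Cells were grown in 96-well plates and exposed to each compound for 48 hours at five concentrations; endpoints were interpolated linearly between bracketing concentrations, or set to the highest concentration if not reached. The concentration for 50% growth inhibition is given as GI50.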 Activity calls are given as the source filed them. No stated cut-off is given here; in the data, active = GI50 up to about 1.1 µM and inactive = higher.
What was measured:
Test in all cases: growth of human tumour cells (NCI), 48 h
A549 = test system: A549
RXF 393 = test system: RXF 393
UO-31 = test system: UO-31
KM12 = test system: KM12
TK-10 = test system: TK-10
LXFL 529 = test system: LXFL 529
CCRF-CEM = test system: CCRF-CEM
HOP-62 = test system: HOP-62

Measured: GI50

CCN(CC)CCC(=O)c1ccccc1
inactive: A549 > 100 µM | RXF 393 20.4 µM | UO-31 31.3 µM | KM12 43.4 µM | TK-10 21.3 µM | LXFL 529 17.8 µM | CCRF-CEM 6.21 µM | HOP-62 > 100 µM
